Laboratory results reported in BindingDB's records for doi:10.7270/Q2N301S8 (D3R/Abbott, 2020).

Target: Beta-secretase 1 (Homo sapiens, UniProt P56817)
Test: D3R2027
Excerpt: D3R2027

Beta-secretase 1, sequence (P56817 whole entry): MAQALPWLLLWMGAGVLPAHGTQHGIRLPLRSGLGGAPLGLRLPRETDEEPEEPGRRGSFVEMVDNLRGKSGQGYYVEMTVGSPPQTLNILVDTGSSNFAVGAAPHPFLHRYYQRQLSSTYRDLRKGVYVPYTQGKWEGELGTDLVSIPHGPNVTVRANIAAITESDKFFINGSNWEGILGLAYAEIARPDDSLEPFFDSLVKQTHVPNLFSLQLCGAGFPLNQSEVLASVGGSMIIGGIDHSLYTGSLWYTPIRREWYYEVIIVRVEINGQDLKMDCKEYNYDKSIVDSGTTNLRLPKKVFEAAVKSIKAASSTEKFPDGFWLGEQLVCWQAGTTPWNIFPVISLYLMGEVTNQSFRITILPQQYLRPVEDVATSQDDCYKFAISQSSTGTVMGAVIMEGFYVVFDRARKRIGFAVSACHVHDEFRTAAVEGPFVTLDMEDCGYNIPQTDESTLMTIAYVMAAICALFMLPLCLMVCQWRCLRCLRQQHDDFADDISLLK

Structure (SMILES)	IC50 [nM]
C[C@@H]1CC/C=C/CCCNc2cc(CO)cc(c2)C(=O)N[C@H]([C@H](O)CNCc2cc(CC(C)(C)C)on2)C1 [BACE_67]	210
CC(C)c1cccc(C(C)(C)NC[C@@H](O)[C@@H]2C[C@H](C)CCCCCCCNc3cccc(n3)C(=O)N2)c1 [BACE_70]	2900
CC(C)c1cccc(CNC[C@@H](O)[C@@H]2C[C@H](C)CCCCCCCC[C@@]3(O)CCC[C@H](C3)C(=O)N2)c1 [BACE_86]	1700
CCCc1cc(CNC[C@@H](O)[C@@H]2C[C@H](C)CCCCCCCNc3cc(COC)cc(c3)C(=O)N2)no1 [BACE_64]	570
CC(=O)c1cc2cc(c1)C(=O)N[C@H]([C@H](O)CNC1(c3cccc(C(C)C)c3)CC1)Cc1cccc(c1)OCCCCN2 [BACE_14]	9
COCc1cc2cc(c1)C(=O)N[C@H]([C@H](O)CNCc1cc(C(F)(F)F)ccc1F)C[C@H](C)CCOCCCCN2 [BACE_76]	5600
C[C@@H]1CCCCCCNC(=O)C[C@@H](C)C(=O)N[C@H]([C@H](O)CNCc2cccc(C(C)(C)C)c2)C1 [BACE_37]	5900
CC(C)c1cccc(CNC[C@@H](O)[C@@H]2C[C@@H]3CC[C@H](CCCCCNc4cc(cc(C(F)(F)F)c4)C(=O)N2)C3)c1 [BACE_71]	340
COCc1cc2cc(c1)C(=O)N[C@H]([C@H](O)CNCc1cc(OC)cc(OC)c1)C[C@H](C)CCCCCCCN2 [BACE_61]	1500
COCc1cc2cc(c1)C(=O)N[C@H]([C@H](O)CNCc1cccc(C(C)C)c1)Cc1cccc(c1)OCCCCO2 [BACE_15]	72
CC(C)c1cccc(CNC[C@@H](O)[C@@H]2C[C@H](C)CCOCCCCNc3cc(cc(Cl)n3)C(=O)N2)c1 [BACE_8]	31
Cc1cc2cc(n1)N(C)CCCCCC[C@@H](C)C[C@@H]([C@H](O)CNCc1cccc(C(C)C)c1)NC2=O [BACE_44]	2100
COCc1cc2cc(c1)C(=O)N[C@H]([C@H](O)CNCCc1ccncc1)C[C@H](C)CCCCCCCN2 [BACE_65]	1700
CCCCNC(=O)[C@H](C)C[C@H](O)[C@H](Cc1ccccc1)NC(=O)c1cc(NCCCC)nc(OC)c1 [BACE_20]	770
COCc1cc2cc(c1)C(=O)N[C@H]([C@H](O)CNC1(c3cccc(C(C)(C)C)c3)CC1)C[C@H](C)CCOC/C=C\CN2 [BACE_75]	60
CCOc1ccc(C(F)(F)F)c(CNC[C@@H](O)[C@@H]2C[C@H](C)CCCCCCCCC(=O)N(C)[C@@H](C)C(=O)N2)c1 [BACE_24]	53
CC(C)c1cccc(CNC[C@@H](O)[C@@H]2Cc3cccc(c3)OCCCCO[C@H]3CCN(CC(=O)N2)C3=O)c1 [BACE_89]	260
C[C@H]1C(=O)N[C@H]([C@H](O)CNC2(c3cccc(Br)c3)CC2)Cc2cccc(c2)OCCCCCC(=O)N1C [BACE_90]	170
CCCc1cc(CNC[C@@H](O)[C@@H]2C[C@H](C)CCCCCCOCC(=O)N(C)[C@@H](C)C(=O)N2)n[nH]1 [BACE_5]	400

Structure (SMILES)	IC50 [nM]
C[C@@H]1CCCCCCCNc2cc(cc(-c3ncco3)c2)C(=O)N[C@H]([C@H](O)CNC2(c3cc(C(C)(C)C)ccn3)CC2)C1 [BACE_59]	1.7
C[C@@H]1CCOCCCCNc2cc(ccc2Cl)C(=O)N[C@H]([C@H](O)CNCc2cc(C(C)(C)C)ccn2)C1 [BACE_74]	150
C[C@@H]1CCCCCCOCC(=O)N(C)[C@@H](C)C(=O)N[C@H]([C@H](O)CNCc2cncc(Br)c2)C1 [BACE_35]	510
CC(C)c1cccc(CNC[C@@H](O)[C@@H]2C[C@H](C)CCCCCCCOc3cc(cc(N(C)S(C)(=O)=O)c3)C(=O)N2)c1 [BACE_82]	11
CC(C)c1cccc(CNC[C@@H](O)[C@@H]2Cc3cccc(c3)OCCCCCC(=O)N(C)[C@@H](C)C(=O)N2)c1 [BACE_11]	32
CC(C)c1cccc(CNC[C@@H](O)[C@@H]2C[C@H](C)CC/C=C/CCCNc3cc(CO)cc(c3)C(=O)N2)c1 [BACE_66]	350
CC(C)c1cccc(CNC[C@@H](O)[C@@H]2Cc3ccc(O)c(c3)Cc3ccccc3OCC(=O)N[C@@H](C)C(=O)N2)c1 [BACE_88]	4300
COCc1cc2cc(c1)C(=O)N[C@H]([C@H](O)CNC1(c3cccc(C(C)(C)C)c3)COC1)C[C@H](C)CCCCCCCN2 [BACE_60]	33
C[C@@H]1CCCCCCCCC(=O)N(C)[C@@H](C)C(=O)N[C@H]([C@H](O)CNCc2cc(CC(C)(C)C)on2)C1 [BACE_29]	3.5
COCc1cc2cc(c1)C(=O)N[C@H]([C@H](O)[C@H]1CO[C@@H](COC)CN1)Cc1cccc(c1)OCCCCN2 [BACE_13]	8300
CC(C)c1cccc(CNC[C@@H](O)[C@@H]2C[C@H](C)CCCCCCCCC(=O)N(C)CC(=O)N2)c1 [BACE_32]	360
CC(C)c1cccc(CNC[C@@H](O)[C@@H]2C[C@H](C)CCCCCCCN(C)c3cc(ccn3)C(=O)N2)c1 [BACE_42]	740
CC(C)Oc1ccc(C2CC2)cc1CNC[C@@H](O)[C@@H]1C[C@H](C)CCCCCCOCC(=O)N(C)[C@@H](C)C(=O)N1 [BACE_36]	1500
C[C@@H]1CCCCCCCCS(=O)(=O)C[C@@H](C)C(=O)N[C@H]([C@H](O)CN[C@@H](C)c2cc(CC(C)(C)C)on2)C1 [BACE_39]	21
COCc1cc2cc(c1)C(=O)N[C@H]([C@H](O)CNCc1ccc3c(c1)OCCCO3)C[C@H](C)CCCCCCCN2 [BACE_62]	3400
CC(C)c1cccc(CNC[C@@H](O)[C@@H]2C[C@H](C)CCCCCCCN(S(C)(=O)=O)c3cc(cc(N(C)S(C)(=O)=O)c3)C(=O)N2)c1 [BACE_69]	1900
CC(C)c1cccc(CNC[C@@H](O)[C@@H]2C[C@H](C)CCCCC[C@H](C)CCC(=O)N(C)[C@@H](C)C(=O)N2)c1 [BACE_33]	19
C/C1=C\[C@@H]([C@H](O)CNCc2cccc(C(C)C)c2)NC(=O)c2cc(Cl)nc(c2)NCCCCOCC1 [BACE_49]	470
C[C@@H]1CCCCCCCOc2cccc(c2)C(=O)N[C@H]([C@H](O)CNCc2cncc(CC(C)(C)C)c2)C1 [BACE_78]	880

Now from value to molecule:

IC50 [nM]	Structure (SMILES)
0.5	CCCCNC(=O)[C@H](C)C[C@H](O)[C@@H]1C[C@H](C)CCCCCCC[C@H](NC(=O)c2ccncc2)C(=O)N[C@@H](C)C(=O)N1 [BACE_150]
6	C[C@H](NC[C@@H](O)[C@@H]1Cc2cccc(c2)OCCCCOc2cncc(c2)C(=O)N1)c1cc(CC(C)(C)C)on1 [BACE_125]
47	Cc1cc2cc(n1)OCCCCc1cc(cc(Cl)c1O)C[C@@H]([C@H](O)CNC(C)(C)c1cccc(C(C)C)c1)NC2=O [BACE_107]
4000	CCCCNC(=O)[C@H](C)C[C@H](O)[C@@H]1Cc2ccc(O)c(c2)Cc2ccccc2OCCCCC(=O)N1 [BACE_158]
250	CC(C)c1cccc(CNC[C@@H](O)[C@@H]2Cc3cccc(c3)CCCCOc3cc(cc(-c4ncco4)c3)C(=O)N2)c1 [BACE_132]
920	CCCCNC(=O)[C@H](C)C[C@H](O)[C@@H]1C[C@H](C)CCCC[C@H](C)CCC(=O)N[C@@H](C)C(=O)N1 [BACE_147]
13000	COCc1cc2cc(c1)C(=O)N[C@H]([C@H](O)CN)Cc1cccc(c1)OCCCCN2 [BACE_126]
39	COc1ccc2cc1OCCCCNc1cc(cc(Cl)n1)C(=O)N[C@H]([C@H](O)CNCc1cccc(C(C)C)c1)C2 [BACE_100]
14	COCc1cc2cc(c1)C(=O)N[C@H]([C@H](O)CNCc1cc(CC(C)(C)C)on1)Cc1cccc(c1)OCCCCN2 [BACE_129]
78	COCc1cc2cc(c1)C(=O)N[C@H]([C@H](O)CNC1(c3cccc(C(C)C)c3)CC1)Cc1cccc(c1)OCCCO2 [BACE_140]
57	CC(C)c1cccc(C(C)(C)NC[C@@H](O)[C@@H]2Cc3cccc(c3)OCCCCNc3cncc(c3)C(=O)N2)c1 [BACE_114]
120	CC(C)c1cccc(C(C)(C)NC[C@@H](O)[C@@H]2Cc3cc(F)c(N)c(c3)CCCCNc3cccc(c3)C(=O)N2)c1 [BACE_116]
590	CC(C)(NC[C@@H](O)[C@@H]1Cc2cccc(c2)CCCCNc2cncc(c2)C(=O)N1)c1cccc(Br)c1 [BACE_120]
110	CCCCNC(=O)[C@H](C)C[C@H](O)[C@@H]1Cc2cccc(c2)OCCCCS(=O)(=O)C[C@@H](C)C(=O)N1 [BACE_156]
1000	CC(C)c1cccc(CNC[C@@H](O)[C@@H]2Cc3cccc(c3)CCCCN(C)c3cccc(c3)C(=O)N2)c1 [BACE_118]
120	Cc1cc2cc(n1)OCCCCOc1cccc(c1)C[C@@H]([C@H](O)CNC(C)(C)c1cc(C(C)(C)C)sn1)NC2=O [BACE_110]
41	CCCCNC(=O)[C@H](C)C[C@H](O)[C@@H]1C[C@H](C)CCCCC[C@H](C)CCC(=O)N(C)[C@@H](C)C(=O)N1 [BACE_148]
69	C[C@@H]1CC(=O)NCCCCOc2cccc(c2)C[C@@H]([C@H](O)CNCc2cccc(C(C)(C)C)c2)NC1=O [BACE_92]
2300	CC(C)c1cccc(C(C)(C)NC[C@@H](O)[C@@H]2Cc3cccc(c3)OCCCCNc3cccc(n3)C(=O)N2)c1 [BACE_122]
6.5	COCc1cc2cc(c1)C(=O)N[C@H]([C@H](O)CNC(C)(C)c1cc(CC(C)(C)C)on1)Cc1cccc(c1)OCCCCN2 [BACE_117]
180	COC(=O)c1cc2cc(c1)C(=O)N[C@H]([C@H](O)CNCc1cccc(C(C)C)c1)Cc1cccc(c1)CCCCO2 [BACE_134]
1400	Cc1cc2cc(n1)OCc1ccccc1COc1cccc(c1)C[C@@H]([C@H](O)CNC1(c3cccc(C(C)C)c3)CC1)NC2=O [BACE_112]
690	CCCCNC(=O)[C@H](C)C[C@H](O)[C@@H]1Cc2cccc(c2)OCCCCCC(=O)N[C@@H](C)C(=O)N1 [BACE_153]
480	CC(C)c1cccc(CNC[C@@H](O)[C@@H]2Cc3cccc(c3)CCCCOc3cncc(c3)C(=O)N2)c1 [BACE_137]
4.5	CC(C)(C)Cc1cc(C(C)(C)NC[C@@H](O)[C@@H]2Cc3cccc(c3)OCCCCOc3cncc(c3)C(=O)N2)no1 [BACE_109]
16	Cc1cc2cc(n1)OCCCCc1cc(cc(Cl)c1O)C[C@@H]([C@H](O)CNC(C)(C)c1cc(CC(C)(C)C)on1)NC2=O [BACE_108]
3	Cc1cc2cc(n1)NCCCCc1cccc(c1)C[C@@H]([C@H](O)CNCc1cc(C(C)(C)C)ccn1)NC2=O [BACE_97]
4500	COc1cc2cc(c1)C1=N[C@@H](C[C@H](C)CCCCCCCN2)[C@H](CO)O1 [BACE_142]
460	CCCCNC(=O)[C@H](C)C[C@H](O)[C@@H]1C[C@H](C)CCCCCCNc2cc(cc(OC)n2)C(=O)N1 [BACE_152]
